Data: US20260049092A1, “ANTIBACTERIAL COMPOUNDS” (Blacksmith Medicines, Inc., priority 2022, published 2026)
In brackets after ≈: the same amount, converted by molar mass. Like-named read-outs stand apart in the source and are kept apart here.

Assays:
Assay in all cases: Bacterial susceptibility testing (MIC, broth microdilution)
Format in all cases: cell-based
K. pneumoniae ATCC13883 = conditions: Klebsiella pneumoniae
Summary of the method: (§1)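 CLSI broth microdilution was run in cation-adjusted Mueller-Hinton broth with an inoculum of 3×10^5–7×10^5 CFU/mL and 2-fold compound dilutions. Plates were incubated in ambient air at 35° C for 18-24 h. MIC was the lowest concentration preventing visible growth (OD600 nm<0.05).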

E. coli ATCC25922 = conditions: Escherichia coli
Summary of the method: as §1

P. aeruginosa PAO1 = conditions: Pseudomonas aeruginosa
Summary of the method: as §1

P. aeruginosa ATCC27853 = conditions: Pseudomonas aeruginosa
Summary of the method: as §1

[1] = ATCC13883, read-out: K. pneumoniae ATCC13883 MIC
[2] = ATCC25922, read-out: E. coli ATCC25922 MIC
[3] = PAO1, read-out: P. aeruginosa PAO1 MIC
[4] = ATCC27853, read-out: P. aeruginosa ATCC27853 MIC
[5] = ATCC13883, broth microdilution, cation adjusted Mueller-Hinton Broth, 35° C., 18-24 h, read-out: K. pneumoniae ATCC13883 MIC
[6] = ATCC25922, broth microdilution, cation adjusted Mueller-Hinton Broth, 35° C., 18-24 h, read-out: E. coli ATCC25922 MIC
[7] = PAO1, broth microdilution, cation adjusted Mueller-Hinton Broth, 35° C., 18-24 h, read-out: P. aeruginosa PAO1 MIC
[8] = ATCC27853, broth microdilution, cation adjusted Mueller-Hinton Broth, 35° C., 18-24 h, read-out: P. aeruginosa ATCC27853 MIC

| MIC (K. pneumoniae ATCC13883; [5]) | MIC (E. coli ATCC25922; [6]) | MIC (P. aeruginosa PAO1; [7]) | MIC (P. aeruginosa ATCC27853; [8]) | Compound | MIC (K. pneumoniae ATCC13883; [1]) | MIC (E. coli ATCC25922; [2]) | MIC (P. aeruginosa PAO1; [3]) | MIC (P. aeruginosa ATCC27853; [4]) |
| --- | --- | --- | --- | --- | --- | --- | --- | --- |
|  |  |  |  | C[C@H](O)c1nccn1[C@@H](C#Cc1ccc(-c2ccc(NC3CN(CCC#N)C3)cc2)cc1)CO [Compound 79, 3-(3-((4′-((S)-4-hydroxy-3-(2-((S)-1-hydroxyethyl)-1H-imidazol-1-yl)but-1-yn-1-yl)-[1,1′-biphenyl]-4-yl)amino)azetidin-1-yl)propanenitrile] | 8 µg/mL (≈ 17.6 µM) | 1 µg/mL (≈ 2.2 µM) | 2 µg/mL (≈ 4.39 µM) | 4 µg/mL (≈ 8.78 µM) |
| 2 µg/mL (≈ 4.62 µM) | 0.5 µg/mL (≈ 1.16 µM) | 2 µg/mL (≈ 4.62 µM) | 4 µg/mL (≈ 9.25 µM) | C[C@H](O)c1nccn1[C@@H](C#Cc1ccc(-c2ccc(OCC3(C)COC3)cc2)cc1)CO [Compound 80, (S)-2-(2-((S)-1-hydroxyethyl)-1H-imidazol-1-yl)-4-(4′-((3-methyloxetan-3-yl)methoxy)-[1,1′-biphenyl]-4-yl)but-3-yn-1-ol] |  |  |  |  |
|  |  |  |  | C[C@H](O)c1nccn1[C@@H](C#Cc1ccc(-c2ccc(NC3CC3)cc2)cc1)CO [Compound 81, (S)-4-(4′-(cyclopropylamino)-[1,1′-biphenyl]-4-yl)-2-(2-((S)-1-hydroxyethyl)-1H-imidazol-1-yl)but-3-yn-1-ol] | 0.5 µg/mL (≈ 1.29 µM) | 0.25 µg/mL (≈ 0.645 µM) | 2 µg/mL (≈ 5.16 µM) | 8 µg/mL (≈ 20.6 µM) |
| 1 µg/mL (≈ 2.56 µM) | 0.25 µg/mL (≈ 0.64 µM) | 4 µg/mL (≈ 10.2 µM) | > 32 µg/mL | C[C@H](O)c1nccn1[C@@H](C#Cc1ccc(-c2ccc3c(c2)OCCO3)cc1)CO [Compound 82, (S)-4-(4-(2,3-dihydrobenzo[b][1,4]dioxin-6-yl)phenyl)-2-(2-((S)-1-hydroxyethyl)-1H-imidazol-1-yl) but-3-yn-1-ol] |  |  |  |  |
| 4 µg/mL (≈ 10.3 µM) | 2 µg/mL (≈ 5.14 µM) | 16 µg/mL (≈ 41.1 µM) | > 32 µg/mL | C[C@H](O)c1nccn1[C@@H](C#Cc1ccc(-c2ccc3c(c2)NCCO3)cc1)CO [Compound 83, (S)-4-(4-(3,4-dihydro-2H-benzo[b][1,4]oxazin-6-yl)phenyl)-2-(2-((S)-1-hydroxyethyl)-1H-imidazol-1-yl)but-3-yn-1-ol] |  |  |  |  |
| 32 µg/mL (≈ 82.6 µM) | 8 µg/mL (≈ 20.6 µM) | 8 µg/mL (≈ 20.6 µM) | 16 µg/mL (≈ 41.3 µM) | C[C@H](O)c1nccn1[C@@H](C#Cc1ccc(-c2ccc3c(c2)NC(=O)C3)cc1)CO [Compound 84, 6-(4-((S)-4-hydroxy-3-(2-((S)-1-hydroxyethyl)-1H-imidazol-1-yl)but-1-yn-1-yl)phenyl)indolin-2-one] |  |  |  |  |
| 2 µg/mL (≈ 5.36 µM) | 1 µg/mL (≈ 2.68 µM) | 16 µg/mL (≈ 42.8 µM) | > 32 µg/mL | C[C@H](O)c1nccn1[C@@H](C#Cc1ccc(-c2ccc3c(c2)CCN3)cc1)CO [Compound 85, (S)-2-(2-((S)-1-hydroxyethyl)-1H-imidazol-1-yl)-4-(4-(indolin-5-yl)phenyl)but-3-yn-1-ol] |  |  |  |  |
|  |  |  |  | C[C@H](O)c1nccn1[C@@H](C#Cc1ccc(-c2ccc(OC3CN(CC(F)(F)F)C3)cc2)cc1)CO [Compound 86, (S)-2-(2-((S)-1-hydroxyethyl)-1H-imidazol-1-yl)-4-(4′-((1-(2,2,2-trifluoroethyl)azetidin-3-yl)oxy)-[1,1′-biphenyl]-4-yl)but-3-yn-1-ol] | 2 µg/mL (≈ 4.12 µM) | 1 µg/mL (≈ 2.06 µM) | 4 µg/mL (≈ 8.24 µM) | 16 µg/mL (≈ 33 µM) |
| 4 µg/mL (≈ 8.25 µM) | 2 µg/mL (≈ 4.13 µM) | 4 µg/mL (≈ 8.25 µM) | 8 µg/mL (≈ 16.5 µM) | C[C@H](O)c1nccn1[C@@H](C#Cc1ccc(-c2ccc(OC3CN(C4(C#N)COC4)C3)cc2)cc1)CO [Compound 87, 3-(3-((4′-((S)-4-hydroxy-3-(2-((S)-1-hydroxyethyl)-1H-imidazol-1-yl)but-1-yn-1-yl)-[1,1′-biphenyl]-4-yl)oxy)azetidin-1-yl)oxetane-3-carbonitrile] |  |  |  |  |
|  |  |  |  | CC(=O)N1CC(Oc2ccc(-c3ccc(C#C[C@@H](CO)n4ccnc4[C@H](C)O)cc3)cc2)C1 [Compound 88, 1-(3-((4′-((S)-4-hydroxy-3-(2-((S)-1-hydroxyethyl)-1H-imidazol-1-yl)but-1-yn-1-yl)-[1,1′-biphenyl]-4-yl)oxy)azetidin-1-yl)ethan-1-one] | 2 µg/mL (≈ 4.49 µM) | 1 µg/mL (≈ 2.24 µM) | 2 µg/mL (≈ 4.49 µM) | 4 µg/mL (≈ 8.98 µM) |
|  |  |  |  | C[C@H](O)c1nccn1[C@@H](C#Cc1ccc(-c2ccc(OC3CN(S(C)(=O)=O)C3)cc2)cc1)CO [Compound 89, (S)-2-(2-((S)-1-hydroxyethyl)-1H-imidazol-1-yl)-4-(4′-((1-(methylsulfonyl)azetidin-3-yl)oxy)-[1,1′-biphenyl]-4-yl)but-3-yn-1-ol] | 2 µg/mL (≈ 4.15 µM) | 1 µg/mL (≈ 2.08 µM) | 4 µg/mL (≈ 8.31 µM) | 8 µg/mL (≈ 16.6 µM) |
| 4 µg/mL (≈ 8.69 µM) | 2 µg/mL (≈ 4.34 µM) | 1 µg/mL (≈ 2.17 µM) | 2 µg/mL (≈ 4.34 µM) | CNC(=O)N1CC(Oc2ccc(-c3ccc(C#C[C@@H](CO)n4ccnc4[C@H](C)O)cc3)cc2)C1 [Compound 90, 3-((4′-((S)-4-hydroxy-3-(2-((S)-1-hydroxyethyl)-1H-imidazol-1-yl)but-1-yn-1-yl)-[1,1′-biphenyl]-4-yl)oxy)-N-methylazetidine-1-carboxamide] |  |  |  |  |
|  |  |  |  | C[C@H](O)c1nccn1[C@@H](C#Cc1ccc(-c2ccc(OC3CN(C(=O)CO)C3)cc2)cc1)CO [Compound 91, 2-hydroxy-1-(3-((4′-((S)-4-hydroxy-3-(2-((S)-1-hydroxyethyl)-1H-imidazol-1-yl)but-1-yn-1-yl)-[1,1′-biphenyl]-4-yl)oxy)azetidin-1-yl)ethan-1-one] | 4 µg/mL (≈ 8.67 µM) | 2 µg/mL (≈ 4.33 µM) | 2 µg/mL (≈ 4.33 µM) | 4 µg/mL (≈ 8.67 µM) |
|  |  |  |  | C[C@H](O)c1nccn1[C@@H](C#Cc1ccc(-c2ccc(OC3CN(CC#N)C3)cc2)cc1)CO [Compound 92, 2-(3-((4′-((S)-4-hydroxy-3-(2-((S)-1-hydroxyethyl)-1H-imidazol-1-yl)but-1-yn-1-yl)-[1,1′-biphenyl]-4-yl)oxy)azetidin-1-yl)acetonitrile] | 1.5 µg/mL (≈ 3.39 µM) | 0.75 µg/mL (≈ 1.69 µM) | 3 µg/mL (≈ 6.78 µM) | 6 µg/mL (≈ 13.6 µM) |
|  |  |  |  | C[C@H](O)c1nccn1[C@@H](C#Cc1ccc(-c2ccc(OC3CN(CCC#N)C3)cc2)cc1)CO [Compound 93, 3-(3-((4′-((S)-4-hydroxy-3-(2-((S)-1-hydroxyethyl)-1H-imidazol-1-yl)but-1-yn-1-yl)-[1,1′-biphenyl]-4-yl)oxy)azetidin-1-yl)propanenitrile] | 1 µg/mL (≈ 2.19 µM) | 0.5 µg/mL (≈ 1.1 µM) | 2 µg/mL (≈ 4.38 µM) | 4 µg/mL (≈ 8.76 µM) |
|  |  |  |  | C[C@H](O)c1nccn1[C@@H](C#Cc1ccc(-c2ccc(OC3CN(C(N)=O)C3)cc2)cc1)CO [Compound 94, 3-((4′-((S)-4-hydroxy-3-(2-((S)-1-hydroxyethyl)-1H-imidazol-1-yl)but-1-yn-1-yl)-[1,1′-biphenyl]-4-yl)oxy)azetidine-1-carboxamide] | 4 µg/mL (≈ 8.96 µM) | 1 µg/mL (≈ 2.24 µM) | 2 µg/mL (≈ 4.48 µM) | 2 µg/mL (≈ 4.48 µM) |
|  |  |  |  | C[C@H](O)c1nccn1[C@@H](C#Cc1ccc(-c2ccc(OC3CN(C(=O)N(C)C)C3)cc2)cc1)CO [Compound 95, 3-((4′-((S)-4-hydroxy-3-(2-((S)-1-hydroxyethyl)-1H-imidazol-1-yl)but-1-yn-1-yl)-[1,1′-biphenyl]-4-yl)oxy)-N,N-dimethylazetidine-1-carboxamide] | 2 µg/mL (≈ 4.21 µM) | 0.5 µg/mL (≈ 1.05 µM) | 2 µg/mL (≈ 4.21 µM) | 4 µg/mL (≈ 8.43 µM) |
|  |  |  |  | C[C@H](O)c1nccn1[C@@H](C#Cc1ccc(-c2ccc(OC3CN(C(=O)N4CCOCC4)C3)cc2)cc1)CO [Compound 96, (3-((4′-((S)-4-hydroxy-3-(2-((S)-1-hydroxyethyl)-1H-imidazol-1-yl)but-1-yn-1-yl)-[1,1′-biphenyl]-4-yl)oxy)azetidin-1-yl)(morpholino)methanone] | 8 µg/mL (≈ 15.5 µM) | 2 µg/mL (≈ 3.87 µM) | 8 µg/mL (≈ 15.5 µM) | 8 µg/mL (≈ 15.5 µM) |
|  |  |  |  | C[C@H](O)c1nccn1[C@@H](C#Cc1ccc(-c2ccc(OC3CN(c4nccn4C)C3)cc2)cc1)CO [Compound 98, (S)-2-(2-((S)-1-hydroxyethyl)-1H-imidazol-1-yl)-4-(4′-((1-(1-methyl-1H-imidazol-2-yl)azetidin-3-yl)oxy)-[1,1′-biphenyl]-4-yl)but-3-yn-1-ol] | 2 µg/mL (≈ 4.14 µM) | 0.5 µg/mL (≈ 1.03 µM) | 4 µg/mL (≈ 8.27 µM) | 8 µg/mL (≈ 16.5 µM) |
| > 32 µg/mL | 0.38 µg/mL (≈ 0.981 µM) | > 32 µg/mL | > 32 µg/mL | C[C@H](O)c1nccn1[C@@H](C#Cc1ccc(-c2ccc(N3CCC3)cc2)cc1)CO [Compound 108, (S)-4-(4′-(azetidin-1-yl)-[1,1′-biphenyl]-4-yl)-2-(2-((S)-1-hydroxyethyl)-1H-imidazol-1-yl)but-3-yn-1-ol] |  |  |  |  |
| 1.2 µg/mL (≈ 2.87 µM) | 0.38 µg/mL (≈ 0.91 µM) | > 32 µg/mL | > 32 µg/mL | COC1CN(c2ccc(-c3ccc(C#C[C@@H](CO)n4ccnc4[C@H](C)O)cc3)cc2)C1 [Compound 110, (S)-2-(2-((S)-1-hydroxyethyl)-1H-imidazol-1-yl)-4-(4′-(3-methoxyazetidin-1-yl)-[1,1′-biphenyl]-4-yl)but-3-yn-1-ol] |  |  |  |  |
| 0.5 µg/mL (≈ 1.2 µM) | 0.25 µg/mL (≈ 0.6 µM) | 1.5 µg/mL (≈ 3.6 µM) | 2 µg/mL (≈ 4.8 µM) | C[C@H](O)c1nccn1[C@@H](C#Cc1ccc(-c2ccc(C3CC(C)(O)C3)cc2)cc1)CO (stereo partly drawn) [Compound 111, 3-(4′-((S)-4-hydroxy-3-(2-((S)-1-hydroxyethyl)-1H-imidazol-1-yl)but-1-yn-1-yl)-[1,1′-biphenyl]-4-yl)-1-methylcyclobutan-1-ol] |  |  |  |  |
